Test results as given in paper PMC8226722, “Comparison of Solution Chemical Properties and Biological Activity of Ruthenium Complexes of Selected β-Diketone, 8-Hydroxyquinoline and Pyrithione Ligands” (Pharmaceuticals, 2021).

Columns and labels:
[1] = tested on: MRC-5 normal human embryonal lung fibroblast cells; experiment: MTT cytotoxicity assay, MRC-5; type: cell-based; details: 72 h
Experimental: Human colonic adenocarcinoma cell lines Colo 205 doxorubicin-sensitive (ATCC-CCL-222) and Colo 320/MDR-LRP multidrug resistant expressing ABCB1 (MDR1)-LRP (ATCC-CCL-220.1) were purchased from LGC Promochem (Teddington, UK). […] Cell lines were incubated at 37 °C, in a 5% CO2, 95% air atmosphere. The semi-adherent human colon cancer cells were detached with Trypsin-Versene (EDTA, Sigma, Steinheim, Germany) solution for 5 min at 37 °C. MRC-5 human embryonal lung fibroblast cell lines (ATCC CCL-171) were purchased from LGC Promochem. […] The cell lines were incubated at 37 °C, in a 5% CO2, 95% air atmosphere.
In the study MRC-5 non-cancerous human embryonic lung fibroblast and human colonic adenocarcinoma cell lines (doxorubicin-sensitive Colo 205 and multidrug resistant Colo 320 colonic adenocarcinoma cells) were used to determine the effect of compounds on cell growth. The effects of increasing concentrations of compounds on cell growth were tested in 96-well flat-bottomed microtiter plates. The stock solutions of the compounds were prepared in DMSO, and in the final samples the DMSO content was always lower than 1%. The compounds were diluted in a volume of 100 μL of medium.
In case of the colonic adenocarcinoma cells, the two-fold serial dilutions of compounds were prepared in 100 μL of RPMI 1640, horizontally. The semi-adherent colonic adenocarcinoma cells were treated with Trypsin-Versene (EDTA) solution. They were adjusted to a density of 1 × 10^4 cells in 100 μL of RPMI 1640 medium, and were added to each well, with the exception of the medium control wells. The final volume of the wells containing compounds and cells was 200 μL.
The culture plates were incubated at 37 °C for 72 h; at the end of the incubation period, 20 μL of MTT (Sigma) solution (from a stock solution of 5 mg/mL) were added to each well. After incubation at 37 °C for 4 h, 100 μL of sodium dodecyl sulfate (SDS) (Sigma) solution (10% in 0.01 M HCl) were added to each well and the plates were further incubated at 37 °C overnight. Cell growth was determined by measuring the optical density (OD) at 540/630 nm with Multiscan EX ELISA reader (Thermo Labsystems, Cheshire, WA, USA). […] Curves were fitted by Prism software (GraphPad Software Inc., San Diego, CA, USA) using the sigmoidal dose-response model (comparing variable and fixed slopes). The IC50 values were obtained from at least 3 independent experiments.

[2] = Solution stability and speciation (UV-vis, 1H-NMR, pH-potentiometry); details: for logK formation constant: suggested on the basis of pH-potentiometric data; for pH-dependent stability, UV-vis spectra: pH range 2–11, 24 h
Experimental: In order to confirm our prediction, time-dependent UV-visible (UV-vis) spectra were recorded for complexes 5–8 at pH 7.4 in aqueous solution (in modified phosphate buffered saline (PBS) buffer—PBS’) and in Eagle’s minimum essential medium (EMEM) used for the cytotoxicity studies in the presence of 2% (v/v) dimethyl sulfoxide (DMSO). […] Additionally, ^1H-NMR spectra were recorded for more water-soluble complexes 6–8.
In order to compare the stability of 1 and 3 at physiological pH, a serial dilution was made and UV-vis spectra were recorded in a wide concentration range (10 μM–3 mM) (Figure S10).
Titrations were performed in a carbonate-free KOH solution (0.20 M). The exact concentration of HCl and KOH solutions was determined by pH-potentiometric titrations.
The path length (l) was usually 1 cm, and 2, 5, 20 or 50 mm cells were used occasionally. Equilibrium constants (proton dissociation, stability constants, conditional stability constants (K’7.4) for the formation of mim adducts) and the individual spectra of the species were calculated with the computer program PSEQUAD [55]. The spectrophotometric titrations were performed in aqueous solution of the complexes at 25.0 ± 0.1 °C at an ionic strength of 0.20 M (KCl). Spectrum of the solution of 200 μM complex upon addition of one or two equivalents of its own ligand or phen was also measured at pH 7.4. UV-vis spectra recorded for the complexes as a function of chloride concentrations or PTA (in case of the chlorido complexes) were used to investigate the co-ligand exchange processes at pH 7.4. […] In some cases, the measurements were performed in the presence of 1–2% (Cl^−/PTA exchange reactions) or 6–8% (v/v) (interaction of mim with complexes 2, 4) DMSO.
^1H-NMR stability studies were carried out on a Bruker Avance III HD 500 MHz instrument. All ^1H-NMR spectra were recorded on samples containing 10% (v/v) D2O with the WATERGATE water suppression pulse scheme using DSS internal standard. Stability of complexes 6–8 was checked over time by ^1H-NMR spectroscopy at 500 μM in PBS’ or in EMEM (with 10% (v/v) DMSO-d6).

[3] = Parallel artificial membrane permeability assay (PAMPA); details: for recovery: pH 7.4; for Peff, effective passive permeability: pH 7.4, 100 mM chloride, 5 h
Experimental: Chloride ion concentrations of 4, 24 and 100 mM were chosen according to the chloride content of the nucleus, cytosol and blood serum, respectively. […] Then parallel artificial membrane permeability assay (PAMPA) was used to estimate the ability of the complexes to penetrate membranes by passive diffusion and the effective passive permeability coefficients (Peff) obtained for complexes 1–3 are shown in Table 4 (in case of 4, there are no data due to formation of precipitate).
Distribution coefficients at physiological pH (D7.4) of the complexes were determined by the traditional shake-flask method in n-octanol/buffered aqueous solution at pH 7.40 (20 mM phosphate buffer) at various chloride concentrations and at 25.0 ± 0.2 °C using UV-vis detection as described in our former works [37, 38, 42]. PAMPA was applied for the complexes with a Gentest pre-coated PAMPA Plate System (Corning, Corning, NY, USA) [56]. Briefly, a 96-well filter plate was used as the permeation acceptor and the 96-well bottom plate was used as the permeation donor. For simplicity, PBS was used both as donor and acceptor buffer throughout this study. […] Peff values were calculated according to the equation reported by Yu et al. [57].

[4] = target: ABCB1 (P-glycoprotein) efflux pump (Homo sapiens, UniProt P08183); experiment: Rhodamine 123 uptake/retention fluorescence assay (flow cytometry) in Colo 320 cells
Sequence of ABCB1 (P-glycoprotein) efflux pump (P08183 whole entry): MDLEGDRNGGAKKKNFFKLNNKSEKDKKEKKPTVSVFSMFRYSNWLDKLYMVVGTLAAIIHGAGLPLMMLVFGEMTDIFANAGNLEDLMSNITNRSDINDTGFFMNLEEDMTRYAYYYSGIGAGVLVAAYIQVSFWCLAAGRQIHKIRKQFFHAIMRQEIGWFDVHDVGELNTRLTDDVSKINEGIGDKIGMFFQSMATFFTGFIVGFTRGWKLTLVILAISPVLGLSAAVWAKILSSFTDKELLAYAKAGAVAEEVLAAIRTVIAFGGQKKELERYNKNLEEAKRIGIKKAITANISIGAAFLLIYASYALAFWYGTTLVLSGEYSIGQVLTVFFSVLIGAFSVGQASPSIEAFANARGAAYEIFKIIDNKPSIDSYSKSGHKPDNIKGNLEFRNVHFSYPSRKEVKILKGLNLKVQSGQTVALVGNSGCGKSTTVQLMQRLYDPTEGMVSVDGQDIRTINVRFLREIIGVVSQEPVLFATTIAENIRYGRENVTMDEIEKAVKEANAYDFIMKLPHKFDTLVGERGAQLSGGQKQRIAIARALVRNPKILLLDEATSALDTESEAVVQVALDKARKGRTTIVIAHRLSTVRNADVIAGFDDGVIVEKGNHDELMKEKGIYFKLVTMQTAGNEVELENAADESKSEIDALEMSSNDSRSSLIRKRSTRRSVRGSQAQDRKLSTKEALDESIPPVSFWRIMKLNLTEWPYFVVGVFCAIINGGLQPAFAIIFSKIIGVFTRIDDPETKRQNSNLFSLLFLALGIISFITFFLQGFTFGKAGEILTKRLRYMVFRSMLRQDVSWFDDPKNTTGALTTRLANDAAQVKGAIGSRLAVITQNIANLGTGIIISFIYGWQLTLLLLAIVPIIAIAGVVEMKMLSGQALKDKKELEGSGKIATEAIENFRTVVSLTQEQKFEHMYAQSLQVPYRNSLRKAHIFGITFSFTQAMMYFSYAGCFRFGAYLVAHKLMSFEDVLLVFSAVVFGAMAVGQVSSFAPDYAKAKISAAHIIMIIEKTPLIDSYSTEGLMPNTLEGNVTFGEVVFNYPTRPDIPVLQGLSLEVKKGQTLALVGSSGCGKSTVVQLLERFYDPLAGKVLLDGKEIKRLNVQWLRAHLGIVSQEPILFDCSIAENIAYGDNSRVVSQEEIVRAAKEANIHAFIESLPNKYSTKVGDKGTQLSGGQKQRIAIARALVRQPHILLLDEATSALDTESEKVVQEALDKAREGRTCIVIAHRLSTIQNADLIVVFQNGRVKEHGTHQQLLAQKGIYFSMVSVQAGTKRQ
Experimental: It is important to note, that the resistance of this cell line is primarily mediated by the overexpression of the ABC-transporter P-glycoprotein, which pumps out xenobiotics from the cytosol. […] This dye is membrane-permeable and is rapidly taken up by the cells; therefore, it can be effectively used for the screening of efflux pump inhibiting compounds. […] Then the fluorescence accumulation ratios (FAR) were calculated (Figure 1) according to the equation given in the Materials and Methods section. Verapamil was used as a reference inhibitor compound.
This fluorescence-based detection system uses verapamil (a first-generation, competitive EPI) as reference inhibitor. […] The tested compounds were added at different concentrations (2 and 20 µM; from 1 and 10 mM stock solutions, respectively) and the samples were incubated for 10 min at room temperature.
The parameters evaluated from flow cytometric experiments are forward scatter count (FSC, provides information about cell size); side scatter count (SSC, proportional to cell granularity or internal complexity); mean fluorescence of the cells (FL-1) and the computed FAR and FAR quotients (Table S1).

Structure (SMILES) | IC50 [1] [µM] | fraction of unbound Ru(η6-p-cymene) ([2]; 1H-NMR, pH 1.0, 24 h, 200 mM chloride) [%] | logK formation constant [2] | recovery [3] [%] | Peff, effective passive permeability [3] [×10⁻⁶ cm/s] | FAR fluorescence accumulation ratio ([4]; Colo 320, 2 μM) | FAR quotient (FAR related to that of 20 μM verapamil) ([4]; Colo 320, 2 μM) [%] | FSC forward scatter count ([4]; Colo 320, 2 μM) | SSC side scatter count ([4]; Colo 320, 2 μM) | FAR fluorescence accumulation ratio ([4]; Colo 320, 20 μM) | FAR quotient (FAR related to that of 20 μM verapamil) ([4]; Colo 320, 20 μM) [%] | FSC forward scatter count ([4]; Colo 320, 20 μM) | SSC side scatter count ([4]; Colo 320, 20 μM) | FL-1 mean fluorescence of the cells ([4]; Colo 320, rhodamine 123, 2 μM) | FL-1 mean fluorescence of the cells ([4]; Colo 320, rhodamine 123, 20 μM) | pH-dependent stability, UV-vis spectra [2]
Cc1ccc(C(C)C)cc1.[Cl-].[O-]n1ccccc1=S.[Ru+2] [complex 1] | 2.17 ± 0.22 | < 3 | > 8 | 1.3 | 1.13 |  |  |  |  |  |  |  |  |  |  | 
C1N2CN3CN1CP(C2)C3.Cc1ccc(C(C)C)cc1.F[P-](F)(F)(F)(F)F.[O-]n1ccccc1=S.[Ru+2] [complex 2] | > 100 |  |  | 15 | 2.88 | 1.02 | 21.3 | 2034 | 962 | 1.02 | 21.3 | 2071 | 1024 | 5.4 | 5.41 | stayed unchanged
Cc1ccc(C(C)C)cc1.[Cl-].[O-]n1ccc2ccccc2c1=S.[Ru+2] [complex 3] | 7.6 ± 1.6 |  | > 8 | 8.1 | 3.35 |  |  |  |  |  |  |  |  |  |  | 
C1N2CN3CN1CP(C2)C3.Cc1ccc(C(C)C)cc1.F[P-](F)(F)(F)(F)F.[O-]n1ccc2ccccc2c1=S.[Ru+2] [complex 4] |  |  |  |  |  | 0.82 | 17.0 | 2014 | 959 | 1.70 | 35.2 | 1977 | 973 | 4.33 | 8.95 | stayed unchanged
Cc1ccc(C(C)C)cc1.O=C(C=C([O-])C(F)(F)F)c1ccc(Cl)cc1.[Cl-].[Ru+2] [complex 7] | 26.5 ± 3.2 |  |  |  |  | 1.11 | 23.1 | 1988 | 946 | 1.31 | 27.3 | 1909 | 900 | 5.86 | 6.94 | 
C1N2CN3CN1CP(C2)C3.Cc1ccc(C(C)C)cc1.F[P-](F)(F)(F)(F)F.O=C(C=C([O-])C(F)(F)F)c1ccc(Cl)cc1.[Ru+2] [complex 8] | 17.6 ± 1.5 |  |  |  |  | 0.66 | 13.8 | 1925 | 877 | 1.08 | 22.4 | 1950 | 917 | 3.51 | 5.68 | 
